From patent US8512941B2, “Biological material and methods and solutions for preservation thereof” (Core Dynamics Limited, priority 2004, dated 2013) come the findings set out here.

What all share (format): cell-based
Series [1] has as its system Red blood cells (RBC). In words: Freeze-dried and rehydrated RBC: cell number, MCV, hemolysis. To be noted: for % Hemolysis in Lyo cells / MCV, Lyo / number of Cells, Lyo: lyophilized and rehydrated. On the procedure: Freezing was performed as described in Example 5A. After freezing, samples were transferred to a commercial lyophilizer (Labconco, USA). Samples were lyophilized for 72 hours, after which rehydration was performed by adding 2.4 ml double distilled water at 37° C. back to the samples. After rehydration samples were counted and mean cell volume (MCV) was measured using the Pentra 60 (ABX, France) automatic cell counter. Free hemoglobin levels were measured as described above and the hemolysis percentage was calculated using Formula I.

The test system of series [2] is Mononuclear cells (MNC) derived from umbilical cord blood (UCB). In words: MNC proliferation assay based on thymidine incorporation. The following applies: FIG. 9; cells lyophilized at ×10 EGCG (4.12 mM) versus ×2.5 EGCG (1.03 mM); 48 hour incubation. On the procedure:
In addition, a cell proliferation assay was performed. In brief, the hydrated cells were incubated for 48 hour after which a proliferation assay based on thymidine incorporation was carried out (Promega, USA). The results of the proliferation assay are depicted in FIG. 9, wherein the proliferation index of the cells is depicted as a function of their number at initial plating. […] In addition, as the cells' initial plating number increases so does the proliferation index. The almost linear proportion shown for one of the ×10 EGCG samples is similar to that observed with fresh cells
A general note: Uptake of a labelled nucleoside into DNA is a usual measure of proliferation.

Series [3] concerns Red blood cells (RBC). Description: Post-thaw RBC hemolysis (cyanmethemoglobin assay, Drabkin's solution, Formula I). To be noted: 4.12 mM EGCG in 20% (w/v) Dextran 40, 0.8% NaCl; 1890° C./min; 24 hours at −80° C. As for the experimental part: In the following Examples, unless specifically said otherwise, free hemoglobin levels detection was done by using the cyanmethemoglubin assay using Drabkin's solution (Sigma, USA) and reading the absorbance at 540 nm using an ELISA reader (Bio Tek Instruments, USA). Hemoglobin (Hb) concentration was measured in the supernatant and in the pellet, and the hemolysis percentage was calculated using Formula I: […]
Freezing solution was mixed in a 1:1 ration with packed red blood cells.
RBC were frozen at a volume of 2.5 ml in a 16 mm diameter test tube (Manara, Israel) using the MTG freezing device. […] The test tubes were rotated during freezing at 60 rounds per minute. After freezing, samples were stored for 24 hours in a −80° C. freezer (Forma, USA). Thawing was performed by plunging the samples in a water bath at 37° C. for a period of time under a minute, when the samples visually appears to have been completely thawed.
Samples were rotated at 60 RPM.

For series [4], the system named is Red blood cells (RBC). Description: RBC survival (cell count) after freezing/thawing or lyophilizing/rehydrating at 2.5 ml. On the procedure:
Red blood cells (RBC) were separated from whole blood received from the Israeli Blood Bank. The blood was centrifuged for 10 minutes at 1500 g and the plasma was discarded. […] Afterwards the supernatant was discarded, and an equal volume of cryopreservation solution selected from the solutions in Table I was added to the packed RBC. Different volumes (2.5-50 ml) of the RBC suspension were transferred to a 16-25 mm diameter glass test tube ([…], Israel). The experiment of freezing 200 ml of RBC suspension was done in a 2000 ml freezing bag (Baxter-Fenwal, USA). Samples were then either frozen and thawed in a water bath at 37° C. or lyophilized and rehydrated with double distilled water (DDW) at 37° C. Glass test tubes containing RBC were frozen in a modified MTG freezing apparatus, as described in WO 03/020874 (manufactured by IMT, Israel). The thermal gradient in the cooling unit was set to 5.5° C./mm or 10.5° C./mm or 15.5° C./mm (as detailed below) with final temperatures of -50° C., -100° C. or -150° C. […] During freezing the test tubes that contained only 2.5 ml samples were rotated at a rate of 56 rpm. Subsequent to freezing, biological material was taken from each test tube to test for cell viability. Lyophilization was performed in a commercial lyophilizer (Labconco, USA) with a condenser temperature of -82° C. for 72 hours. The biological material was is rehydrated by adding DDW to reach the sample's original volume. Frozen (but not lyophilized) material was thawed by immersion in a water bath at 37° C. for until it melted. Melting was observed visually. Cells were counted using the […] 60 cell counter (ABX, France), in accordance with the manufacturer's manual. This device provides a complete cell count (CBC) that includes parameters such as: cell number, hematocrit, mean cell volume, hemoglobin, etc. […] In these experiments the cell suspension volume was 2.5 ml.

Structures are written as SMILES.

With `O=C(O[C@@H]1Cc2c(O)cc(O)cc2O[C@@H]1c1cc(O)c(O)c(O)c1)c1cc(O)c(O)c(O)c1` [EGCG, Epigallocatechin gallate], in the series on Red blood cells (RBC) [1] (1.03 mM EGCG), the “MCV, % of lyo from fresh” value stood at 85.23%; the “number of Cells, % of lyo cells from fresh” value came to 67.22%; the “MCV, Fresh” value is 88 μm^3; the “% Hemolysis in Lyo cells” value was determined as 56.18%. Further, in the series on Red blood cells (RBC) [1] (1.03 mM EGCG), the “MCV, Lyo” value stood at 75 μm^3 and the “number of Cells, Lyo” value is 2.83 10^9/ml. The “number of Cells, Fresh” value in the series with Red blood cells (RBC) [1] (1.03 mM EGCG in 20% Dextran 40, 0.8% NaCl) is reported as 4.21 10^9/ml. For the same compound, in the series on Red blood cells (RBC) [1] (4.12 mM EGCG), the “MCV, % of lyo from fresh” value is recorded as 96.59%; the “number of Cells, % of lyo cells from fresh” value worked out at 63.32%; the “MCV, Fresh” value came to 88 μm^3; the “% Hemolysis in Lyo cells” value is given as 51.8%. In addition, in the series with Red blood cells (RBC) [1] (4.12 mM EGCG), the “MCV, Lyo” value is 85 μm^3 and the “number of Cells, Lyo” value is 2.9 10^9/ml. Moreover, the “number of Cells, Fresh” value in the series with Red blood cells (RBC) [1] (4.12 mM EGCG in 20% Dextran 40, 0.8% NaCl) was 4.58 10^9/ml. For the same compound, the proliferation index entry in series [2] is listed as “higher proliferation index”. The compound also showed a Post thaw hemolysis in the series with Red blood cells (RBC) [3] of 3.5%. Also, the “RBC survival, 1B Rehydrated” value in the series with Red blood cells (RBC) [4] (frozen at 1,000° C./min, lyophilized, rehydrated with DDW) was found to be 49.19%. The “RBC survival, 1A Thawed” value in the series on Red blood cells (RBC) [4] (frozen at 1,000° C./min, thawed, not lyophilized, percentage of total fresh cells counted) was determined as 84.53%. Further, in the series on Red blood cells (RBC) [4] (frozen at 2,000° C./min, thawed, not lyophilized), the “RBC survival, 2A Thawed” value is reported as 72.92%.
